The text below walks through data of article PMC11279465, “Dual Inhibitors of P-gp and Carbonic Anhydrase XII (hCA XII) against Tumor Multidrug Resistance with Piperazine Scaffold” (Molecules, 2024).

SMILES strings stand for the structures.

The target of one experiment is P-gp (Homo sapiens, UniProt P08183). The experiment can be described thus: Calcein-AM transport inhibition in MDCK-MDR1 cells. The experiment is classed as cell-based. On the set-up: expressed in transfected cells; host or cells: MDCK (Madin-Darby Canine Kidney). The note with it: mean ± SEM. An excerpt: The MDR interaction potency of these compounds was studied by detecting the inhibition of the P-gp-, MRP1- or BCRP-mediated efflux of a substrate in cells overexpressing the studied pumps. In detail, we measured the following: (i) the transport inhibition of the profluorescent probe calcein-AM (P-gp and MRP1 substrate) in MDCK-MDR1 and MDCK-MRP1 cells (P-gp- and MRP1-overexpressing cells, respectively); (ii) the transport inhibition of the fluorescent probe Hoechst 33342 (BCRP substrate) in MDCK-BCRP cells (BCRP-overexpressing cells).
Experiments were performed as previously described. MDCK-MDR1 and MDCK-MRP1 cells (30,000 cells per well) were seeded in a 96-well black CulturePlate in 100 µL of medium and allowed to grow overnight in a humidified atmosphere of 5% CO2 at 37 °C. Tested compounds (100 µL) in a final concentration ranging between 0.01 nM and 100 µM, solubilized in culture medium, were added to the monolayers. After 30 min in a humidified atmosphere of 5% CO2 at 37 °C, 100 µL of Calcein-AM in phosphate-buffered saline (PBS) was added to obtain a final concentration of 2.5 µM and the plate was incubated for 30 min. All wells were washed 3 times with 100 µL ice-cold PBS and read with Victor3 (PerkinElmer) after adding 100 µL of cold PBS. Excitation and emission wavelengths of 485 nm and 535 nm, respectively, were used. In these experimental conditions, cell Calcein-AM accumulation in the absence and in the presence of each tested compound was evaluated and compared to the basal level of fluorescence derived from untreated cells. The increase in fluorescence from the baseline level was measured in the treated wells. EC50 values were determined by fitting the rate of fluorescence increase versus log[dose].

Another experiment has as its system K562/DOX cells. Briefly: Intrinsic cytotoxicity (MTT). The experiment is classed as cell-based, human. Particulars: compound alone at 3 µM, 72 h. The procedure: Compounds were first studied at 1 and 3 µM concentrations to evaluate their intrinsic cytotoxicity in both the parental K562 and the resistant K562/DOX cell lines, using the MTT assay. All compounds had no intrinsic cytotoxicity in the parental line.
The intrinsic toxicity of the studied compounds was determined by an MTT assay. K562 and K562/DOX were exposed for 72 h with compounds at 1 and 3 µM concentrations while HT29, A549, HT29/DOX and A549/DOX cells were incubated for 48 h with compounds used at different concentrations (from 10 nM to 50 µM). The percentage of growth compared to the untreated control was transformed into histograms with the GraphPad Prism 5 program.

Sequence of P-gp (P08183 whole entry): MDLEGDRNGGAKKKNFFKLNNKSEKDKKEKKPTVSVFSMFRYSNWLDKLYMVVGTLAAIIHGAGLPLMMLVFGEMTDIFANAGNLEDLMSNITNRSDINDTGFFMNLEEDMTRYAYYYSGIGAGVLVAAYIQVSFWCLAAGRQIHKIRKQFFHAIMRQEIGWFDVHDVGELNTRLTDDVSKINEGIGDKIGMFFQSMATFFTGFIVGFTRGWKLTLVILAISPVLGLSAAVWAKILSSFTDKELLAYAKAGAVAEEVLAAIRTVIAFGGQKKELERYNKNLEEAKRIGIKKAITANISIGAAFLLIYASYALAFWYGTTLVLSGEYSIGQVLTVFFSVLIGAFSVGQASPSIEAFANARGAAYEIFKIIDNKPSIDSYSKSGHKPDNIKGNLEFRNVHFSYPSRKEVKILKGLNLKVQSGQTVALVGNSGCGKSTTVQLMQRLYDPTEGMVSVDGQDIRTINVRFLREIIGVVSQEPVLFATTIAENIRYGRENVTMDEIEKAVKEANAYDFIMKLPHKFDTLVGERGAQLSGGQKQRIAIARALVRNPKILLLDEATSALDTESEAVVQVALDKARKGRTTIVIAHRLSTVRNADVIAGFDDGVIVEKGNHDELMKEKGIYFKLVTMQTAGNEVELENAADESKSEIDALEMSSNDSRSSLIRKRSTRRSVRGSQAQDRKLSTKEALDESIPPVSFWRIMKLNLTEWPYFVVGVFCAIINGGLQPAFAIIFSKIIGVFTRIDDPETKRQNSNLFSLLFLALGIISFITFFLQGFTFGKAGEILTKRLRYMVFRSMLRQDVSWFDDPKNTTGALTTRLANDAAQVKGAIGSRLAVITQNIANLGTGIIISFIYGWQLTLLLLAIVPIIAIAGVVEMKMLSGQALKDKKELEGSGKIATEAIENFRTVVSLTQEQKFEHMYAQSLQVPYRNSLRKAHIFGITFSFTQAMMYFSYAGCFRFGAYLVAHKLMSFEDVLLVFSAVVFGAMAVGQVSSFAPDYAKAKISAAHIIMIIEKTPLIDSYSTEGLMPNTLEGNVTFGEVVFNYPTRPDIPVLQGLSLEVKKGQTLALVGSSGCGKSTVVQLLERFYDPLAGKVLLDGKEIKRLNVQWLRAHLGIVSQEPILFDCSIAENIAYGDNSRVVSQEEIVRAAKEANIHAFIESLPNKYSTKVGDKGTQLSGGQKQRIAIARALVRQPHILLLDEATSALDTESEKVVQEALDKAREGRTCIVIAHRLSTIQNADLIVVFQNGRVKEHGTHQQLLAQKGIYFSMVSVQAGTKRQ

For orientation: EC50 means the concentration giving half of the maximal effect. As to `COc1ccc(C(CCCN2CCN(CCCCOc3ccc4ccc(=O)oc4c3)CC2)c2ccc(OC)cc2)cc1` [Compound 27, 7-(4-(4-(4,4-Bis(4-methoxyphenyl)butyl)piperazin-1-yl)butoxy)-2H-chromen-2-one], the EC50 at P-gp was 3.99 ± 0.11 µM. In addition, in the experiment with K562/DOX cells, the “reduction of cellular viability” value was 30–50%.
With `COc1ccc(C(CCCN2CCN(CCCOc3ccc4oc(=O)ccc4c3)CC2)c2ccc(OC)cc2)cc1` [Compound 32, 6-(3-(4-(4,4-Bis(4-methoxyphenyl)butyl)piperazin-1-yl)propoxy)-2H-chromen-2-one], the EC50 on P-gp is 4.53 ± 0.17 µM.
